In patent EP2797914B1, “NIFURATEL SULFOXIDE FOR USE IN THE TREATMENT OF BACTERIAL INFECTIONS” (Polichem SA, priority 2011, dated 2013):
Values after ≈ are worked out from the molar mass of the structure shown. Where two headings read alike, the source gives them in different places.

Legend:
[1] = test system: Lactobacillus iners ATCC 55195; test: MIC by broth microdilution method (CLSI M07-A8 / M11-A7); assay type: cell-based; settings: broth microdilution, Lactobacillus iners ATCC 55195
Experimental: The in vitro activity of nifuratel sulfoxide racemate, R-nifuratel sulfoxide and S-nifuratel sulfoxide was tested on a panel of bacteria, which included both Gram positive and Gram negative bacteria. The minimum inhibitory concentrations (MICs) of the compounds were determined by the broth microdilution method or by the agar dilution method, according to the National Committee for Clinical Laboratory Standards (CLSI) reference methods […]-A8 and M11-A7.

[2] = test system: Salmonella typhimurium ATCC 14028; test: MIC by broth microdilution method (CLSI M07-A8 / M11-A7); efficiency coefficient derived; assay type: cell-based; settings: broth microdilution, Salmonella typhimurium ATCC 14028
Experimental: (§1) The in vitro activity of nifuratel sulfoxide racemate, R-nifuratel sulfoxide and S-nifuratel sulfoxide was tested on a panel of bacteria, which included both Gram positive and Gram negative bacteria.
(§2) The minimum inhibitory concentrations (MICs) of the compounds were determined by the broth microdilution method or by the agar dilution method, according to the National Committee for Clinical Laboratory Standards (CLSI) reference methods M07-A8 and M11-A7.
(§3) The efficiency coefficient (EC) of nifuratel sulfoxide vs. nifuratel was calculated for each tested strain as follows: EC = relative oral bioavailability*[…] [formula]
(§4) Where: • nifS = nifuratel sulfoxide • nif = nifuratel • EC = 1 is indicative of equivalent efficiency between nifuratel sulfoxide and nifuratel. • EC < 1 is indicative of a lower efficiency of nifuratel sulfoxide vs. nifuratel • EC > 1 is indicative of a higher efficiency of nifS vs. nif

[3] = test system: Proteus mirabilis ATCC 14153; test: as above; assay type: cell-based; settings: broth microdilution, Proteus mirabilis ATCC 14153
Experimental: as §1, §2, §3, §4

[4] = test system: Staphylococcus aureus (MRSA); test: as above; assay type: cell-based; settings: broth microdilution, Staphylococcus aureus (MRSA)
Experimental: as §1, §2, §3, §4

[5] = test system: Salmonella paratyphi B ATCC 10719; test: as above; assay type: cell-based
Experimental: as §1, §2, §3, §4

[6] = test system: Escherichia coli ATCC 11775; test: as above; assay type: cell-based; settings: broth microdilution, Escherichia coli ATCC 11775
Experimental: as §1, §2, §3, §4

[7] = test system: Shigella sonnei ATCC 11060; test: as above; assay type: cell-based
Experimental: as §1, §2, §3, §4

[8] = test system: Klebsiella pneumonia ATCC 10031; test: as above; assay type: cell-based; settings: broth microdilution, Klebsiella pneumonia ATCC 10031
Experimental: as §1, §2, §3, §4

[9] = test system: Neisseria gonorrhoeae ATCC 19424; test: as above; assay type: cell-based; settings: broth microdilution, Neisseria gonorrhoeae ATCC 19424
Experimental: as §1, §2, §3, §4

[10] = test system: Micrococcus pyogenes ATCC 11631; test: as above; assay type: cell-based; settings: broth microdilution, Micrococcus pyogenes ATCC 11631
Experimental: as §1, §2, §3, §4

Gardnerella vaginalis = test: MIC by agar dilution method (CLSI M07-A8 / M11-A7); efficiency coefficient derived; assay type: cell-based; settings: for in vitro antimicrobial activity (in words): tested Gardnerella vaginalis strains
Experimental: as §1, §2, §3, §4

Atopobium vaginae = test: as above; assay type: cell-based; settings: for MIC: agar dilution; for in vitro antimicrobial activity (in words): tested Atopobium vaginae strains
Experimental: as §1, §2, §3, §4

[11] = Metabolic profiling of nifuratel in human urines by LC/MS/MS after oral administration; assay type: in vivo; settings: two subjects treated orally with nifuratel; attributed by mass spectrometry
Experimental: As a matter of fact, metabolic profiling of nifuratel, following oral administration, was assessed in human urines by liquid chromatography/tandem mass spectrometry (LC/MS/MS).
More in details, urines of two subjects treated orally with nifuratel were collected at the following time-points: pre-dose, 0-4, 4-8, 8-12, 12-24, 24-36 and 36-48 h after treatment.
Nifuratel was not detected in any of the urine samples. […] Based on such a discovery, the applicant has performed both in vitro and in vivo tests in order to establish whether nifuratel sulfoxide is endowed with anti-bacterial activity.

[12] = Rat pharmacokinetics in plasma, non compartmental analysis; assay type: in vivo, male rats; settings: male rats; for Cmax: read-out: Cmax; for Tmax: read-out: Tmax (converted)
Experimental: The pharmacokinetic profiles in plasma of nifuratel and nifuratel sulfoxide were tested after intravenous administration (2mg/kg) and oral gavage (15mg/kg) in male rats. […]

[13] = agar dilution, strain ATCC 14018
[14] = Salmonella enterica, read-out: MIC
[15] = 2mg/kg intravenous administration
[16] = rat, in vivo, IV (2mg/Kg), plasma, mean
[17] = rat, in vivo, XOS (15mg/kg), oral gavage, plasma, mean

## C[S+]([O-])CC1CN(N=Cc2ccc([N+](=O)[O-])o2)C(=O)O1 (mixture of isomers) [R-Nifuratel sulfoxide, (R)-nifuratel sulfoxide]
[1]
  MIC: 16 µg/mL
[2]
  MIC: 16 µg/mL
[3]
  MIC: 8 µg/mL
[4]
  MIC: 16 µg/mL
[5]
  MIC: 16 µg/mL
[6]
  MIC: 16 µg/mL
[7]
  MIC: 16 µg/mL
[8]
  MIC: 16 µg/mL
[9]
  MIC: 2 µg/mL
[10]
  MIC: 32 µg/mL
Gardnerella vaginalis; [13]
  MIC: 8 µg/mL
Gardnerella vaginalis; agar dilution, strain C2
  MIC: 32 µg/mL
Gardnerella vaginalis; agar dilution, strain D2
  MIC: 64 µg/mL
Gardnerella vaginalis; agar dilution, strain E2
  MIC: 64 µg/mL
Gardnerella vaginalis; agar dilution, strain G2
  MIC: 64 µg/mL
Gardnerella vaginalis; agar dilution, strain H2
  MIC: 16 µg/mL
Gardnerella vaginalis; agar dilution, strain J2
  MIC: 32 µg/mL
Gardnerella vaginalis; agar dilution, strain K2
  MIC: 64 µg/mL
Gardnerella vaginalis
  in vitro antimicrobial activity (in words): good activity
Atopobium vaginae; strain CCUG 38953
  MIC: 1 µg/mL
Atopobium vaginae; strain CCUG 39382
  MIC: 1 µg/mL
Atopobium vaginae; strain CCUG 42099
  MIC: 1 µg/mL
Atopobium vaginae; strain CCUG 43049
  MIC: 4 µg/mL
Atopobium vaginae; strain CCUG 44061
  MIC: 1 µg/mL
Atopobium vaginae; strain CCUG 44156
  MIC: 2 µg/mL
Atopobium vaginae; strain CCUG 48515
  MIC: 2 µg/mL
Atopobium vaginae; strain CCUG 55226
  MIC: 2 µg/mL
Atopobium vaginae; strain CCUG 55227
  MIC: 1 µg/mL
Atopobium vaginae
  in vitro antimicrobial activity (in words): good activity

## C[S+]([O-])CC1CN(N=Cc2ccc([N+](=O)[O-])o2)C(=O)O1 (mixture of isomers) [S-Nifuratel sulfoxide, (S)-nifuratel sulfoxide]
[1]
  MIC: 32 µg/mL
[2]
  MIC: 16 µg/mL
[3]
  MIC: 4 µg/mL
[4]
  MIC: 16 µg/mL
[5]
  MIC: 8 µg/mL
[6]
  MIC: 16 µg/mL
[7]
  MIC: 16 µg/mL
[8]
  MIC: 16 µg/mL
[9]
  MIC: 2 µg/mL
[10]
  MIC: 64 µg/mL
Gardnerella vaginalis; [13]
  MIC: 16 µg/mL
Gardnerella vaginalis; agar dilution, strain C2
  MIC: 16 µg/mL
Gardnerella vaginalis; agar dilution, strain D2
  MIC: 16 µg/mL
Gardnerella vaginalis; agar dilution, strain E2
  MIC: 32 µg/mL
Gardnerella vaginalis; agar dilution, strain G2
  MIC: 16 µg/mL
Gardnerella vaginalis; agar dilution, strain H2
  MIC: 8 µg/mL
Gardnerella vaginalis; agar dilution, strain J2
  MIC: 16 µg/mL
Gardnerella vaginalis; agar dilution, strain K2
  MIC: 32 µg/mL
Gardnerella vaginalis
  in vitro antimicrobial activity (in words): good activity
Atopobium vaginae; strain CCUG 38953
  MIC: 2 µg/mL
Atopobium vaginae; strain CCUG 39382
  MIC: 2 µg/mL
Atopobium vaginae; strain CCUG 42099
  MIC: 16 µg/mL
Atopobium vaginae; strain CCUG 43049
  MIC: 8 µg/mL
Atopobium vaginae; strain CCUG 44061
  MIC: 1 µg/mL
Atopobium vaginae; strain CCUG 44156
  MIC: 2 µg/mL
Atopobium vaginae; strain CCUG 48515
  MIC: 2 µg/mL
Atopobium vaginae; strain CCUG 55226
  MIC: 8 µg/mL
Atopobium vaginae; strain CCUG 55227
  MIC: 4 µg/mL
Atopobium vaginae
  in vitro antimicrobial activity (in words): good activity

## C[S+]([O-])CC1CN(/N=C/c2ccc([N+](=O)[O-])o2)C(=O)O1 (racemic) [Nifuratel sulfoxide, nifuratel sulfoxide]
[11]
  metabolite found in urine: major metabolite
[1]; ATCC55195, read-out: MIC
  MIC: 16 µg/mL (≈ 53.1 µM)
[2]; [14]
  MIC: 32 µg/mL (≈ 106 µM)
[3]; ATCC14153, read-out: MIC
  MIC: 8 µg/mL (≈ 26.6 µM)
[4]; read-out: MIC
  MIC: 16 µg/mL (≈ 53.1 µM)
[5]; [14]
  MIC: 8 µg/mL (≈ 26.6 µM)
[6]; ATCC11775, read-out: MIC
  MIC: 16 µg/mL (≈ 53.1 µM)
[7]; ATCC11060, read-out: MIC
  MIC: 16 µg/mL (≈ 53.1 µM)
[8]; Klebsiella pneumoniae, ATCC10031, read-out: MIC
  MIC: 16 µg/mL (≈ 53.1 µM)
[9]; ATCC19424, read-out: MIC
  MIC: 2 µg/mL (≈ 6.64 µM)
[10]; Staphylococcus aureus, ATCC11631, read-out: MIC
  MIC: 32 µg/mL (≈ 106 µM)
Gardnerella vaginalis; Gardnerella vaginalis, ATCC14018, agar dilution, strain ATCC 14018, read-out: MIC
  MIC: 8 µg/mL (≈ 26.6 µM)
Gardnerella vaginalis; Gardnerella vaginalis, agar dilution, strain C2, read-out: MIC
  MIC: 16 µg/mL (≈ 53.1 µM)
Gardnerella vaginalis; Gardnerella vaginalis, agar dilution, strain D2, read-out: MIC
  MIC: 32 µg/mL (≈ 106 µM)
Gardnerella vaginalis; Gardnerella vaginalis, agar dilution, strain E2, read-out: MIC
  MIC: 32 µg/mL (≈ 106 µM)
Gardnerella vaginalis; Gardnerella vaginalis, agar dilution, strain G2, read-out: MIC
  MIC: 32 µg/mL (≈ 106 µM)
Gardnerella vaginalis; Gardnerella vaginalis, agar dilution, strain H2, read-out: MIC
  MIC: 8 µg/mL (≈ 26.6 µM)
Gardnerella vaginalis; Gardnerella vaginalis, agar dilution, strain J2, read-out: MIC
  MIC: 32 µg/mL (≈ 106 µM)
Gardnerella vaginalis; Gardnerella vaginalis, agar dilution, strain K2, read-out: MIC
  MIC: 32 µg/mL (≈ 106 µM)
Gardnerella vaginalis
  in vitro antimicrobial activity (in words): good activity
Atopobium vaginae; Fannyhessea vaginae, CCUG38953, strain CCUG 38953, read-out: MIC
  MIC: 2 µg/mL (≈ 6.64 µM)
Atopobium vaginae; Fannyhessea vaginae, CCUG39382, strain CCUG 39382, read-out: MIC
  MIC: 1 µg/mL (≈ 3.32 µM)
Atopobium vaginae; Fannyhessea vaginae, CCUG42099, strain CCUG 42099, read-out: MIC
  MIC: 2 µg/mL (≈ 6.64 µM)
Atopobium vaginae; Fannyhessea vaginae, CCUG43049, strain CCUG 43049, read-out: MIC
  MIC: 4 µg/mL (≈ 13.3 µM)
Atopobium vaginae; Fannyhessea vaginae, CCUG44061, strain CCUG 44061, read-out: MIC
  MIC: 1 µg/mL (≈ 3.32 µM)
Atopobium vaginae; Fannyhessea vaginae, CCUG44156, strain CCUG 44156, read-out: MIC
  MIC: 1 µg/mL (≈ 3.32 µM)
Atopobium vaginae; Fannyhessea vaginae, CCUG48515, strain CCUG 48515, read-out: MIC
  MIC: 2 µg/mL (≈ 6.64 µM)
Atopobium vaginae; Fannyhessea vaginae, CCUG55226, strain CCUG 55226, read-out: MIC
  MIC: 4 µg/mL (≈ 13.3 µM)
Atopobium vaginae; Fannyhessea vaginae, CCUG55227, strain CCUG 55227, read-out: MIC
  MIC: 4 µg/mL (≈ 13.3 µM)
Atopobium vaginae
  in vitro antimicrobial activity (in words): good activity
[12]; [15]
  AUC, folds higher than nifuratel: over 5 folds
  Cmax, folds higher than nifuratel: 4 folds
  clearance, folds slower with respect to nifuratel: over 5 folds
[12]; 15mg/kg oral administration
  AUC, folds higher than nifuratel: 30 folds
  Cmax, folds higher than nifuratel: 37 folds
  increased bioavailability versus nifuratel: 5 fold
[12]; IV (2mg/Kg), plasma, mean
  T1/7: 15.5 min
  Tlast: 120 min
  Vss: 0.865 kg⁻¹
[12]; XOS (15mg/kg), oral gavage
  Mean Fpo: 11%
[12]; XOS (15mg/kg), oral gavage, plasma, mean
  Tlast: 240 min
[12]; [16]
  AUC(0-inf): 703 ng·h/mL
  AUC(0-t): 700 ng·h/mL
  MRT: 17.7 min
  clearance: 47.5 mL/min/kg
  Cmax: 2220 ng/mL
  Tmax: 2 min
[12]; rat, in vivo, IV (2mg/Kg), plasma, mean, read-out: C0
  C0: 2820 ng/mL
[12]; rat, in vivo, IV (2mg/Kg), plasma, mean, read-out: Clast
  concentration at 120 min: 73 ng/mL
[12]; [17]
  AUC(0-t): 605 ng·h/mL
  MRT: 94 min
  half-life: 128 min
  Cmax: 298 ng/mL
  Tmax: 23 min
[12]; rat, in vivo, XOS (15mg/kg), oral gavage, plasma, mean, read-out: Clast
  concentration at 240 min: 80.6 ng/mL
